Source: paper PMC11189555, “Aryl amino acetamides prevent Plasmodium falciparum ring development via targeting the lipid-transfer protein PfSTART1” (Nature Communications, 2024)

Tested on: SLI-N330K parasites
Assay: Growth inhibition assay (72 h, LDH activity)
Format: cell-based, Plasmodium falciparum
Description: Parasite growth assays with inhibitory compounds were performed as per[11] and are fully described in the Supplementary Information.
Molecular biology and transfection of P. falciparum: Selection Linked Integration […]
To introduce the PfSTART1 mutations, the second half of the coding sequence of pfstart1 (PF3D7_0104200), was recodonised without introns to the bias of Saccharomyces cerevisiae containing either WT, N309K or N330K mutations, and synthesised as gBlock fragments (Integrated DNA Technologies). The first 819 bp of the 5′ native sequence of pfstart1 was amplified from gDNA, to form the 5’ homology block (5’ HB). The 3′ recodonised gBlock fragment comprising of the last 552 bp of either the WT, N309K or N330K pfstart1 to form the ‘recodon’ block (primers listed in Table S2). The 5’ HB and recodon products were sewn together by overlapping PCR to reconstitute the full coding sequence of pfstart1. These blocks (WT/N309K/N330K) were digested with BglII/PstI, and inserted into the parasite vector p-HA-2A-Neo-glmS
1. This plasmid contains an in -frame haemagglutinin (HA) epitope for protein identification and a P2A peptide (2A) to skip continuous peptide bond synthesis of a downstream neomycin resistance gene ( NeoR).
Parasites containing the transfected DNA were selected using 2.5 nM WR99210 (Jacobus). To select for parasites in which single crossover integration had occurred into the pfstart1 locus, parasites were treated with 400 μg/mL G418 (geniticin, Sigma Aldrich) for 14 days: only parasites that have integrated the construct into their genome expressed the neomycin resistance gene together with the PfSTART1 protein.
Parasite lines were cloned using limiting dilution. These clones were then tested on Western Blot (for correct HA-tagging and protein size), and correct integration and sequence were tested by PCR analysis: PCR on the gDNA was conducted using the primers START_5’UTR.F and START_Seq.R (Table S2). […]
Growth inhibition assays. Synchronised ring-stage parasites (0.3-0.6% parasitemia, 2% haematocrit) were grown for 72 h in a serial-dilution of the compound under […]
and compound 4. Note that M-833 was first purchased from MolPort (MolPort -002-267-916) then made in-house at WEHI: the differences observed in EC50s across experiments are attributed to the different batches of M -833. For some experiments, 0, 0.25 or 2.5 mM of glucosamine (GlcN) was also added. Experiments were set up in technical duplicates or triplicates. Following a freeze -thaw cycle, lactate dehydrogenase (LDH) activity was assessed as an indicator of parasite growt h 5. 30 μL of parasite culture was incubated for 30 min in the dark with 75 μL Malstat mixture (0.1 M Tris pH 9.0, 20 g/L lactic acid, pH 7.5, 0.2% Triton-X100, 0.5 g/L acetylpyridine adenine dinucleotide (APAD, Sigma), 200 μg/mL nitroblue tetrazolium (NBT; Sigma), 1 μg/mL phenozine ethosulfate (PES; Sigma)). Absorbance was then measured at 650 nm, transformed using the formula below, plotted against the logarithm of the concentrations, and a non-linear regression (log(inhibitor) vs. response, variable slope) was calculated using GraphPad Prism to assess the half-inhibitory […]
Growth inhibition % = (1 − average(sample)− average(uRBC)) ∗ 100 […]
The DMSO samples were also used to assess growth of parasite in the presence of 0.25 and 2.5 mM GlcN (normalised by DMSO in 0 mM GlcN).
Egress, invasion & recovery assay. To measure egress, invasion and follow up recovery in the presence of different compounds, we adapted the method developed in6, using Hyp1-Nluc parasites7. These parasites episomally express the exported PEXEL protein Hyp1 (PF3D7_0113300) tagged with a NanoLuc luciferase (NLuc) and were selected with 2.5 nM WR99210 (Jacobus). Highly synchronised schizonts were obtained using ML10 (LifeArc) and sorbitol synchronisation, and Percoll-purified (the culture was gently layered over 67% Percoll (Cytiva) in RPMI, and centrifuged for 15 min at 1500 g and the schizont layer was collected and washed). […]

Structure (SMILES): Cc1cc(Cl)c(S(=O)(=O)N2CCCC2)cc1OCC(=O)NC1CCCCC1 [M-833]
- sample/DMSO (0.00152416 uM M-833, START(N330K), 0 mM GlcN, biological replicate 2): 1.655
- sample/DMSO (0.00152416 uM M-833, START(N330K), 0.25 mM GlcN, biological replicate 1): -2.909
- sample/DMSO (0.00152416 uM M-833, START(N330K), 0.25 mM GlcN, biological replicate 2): 8.825
- sample/DMSO (0.00152416 uM M-833, START(N330K), 2.5 mM GlcN, biological replicate 1): 11.1758
- sample/DMSO (0.00457247 uM M-833, START(N330K), 0 mM GlcN, biological replicate 1): 3.2212
- sample/DMSO (0.00457247 uM M-833, START(N330K), 0 mM GlcN, biological replicate 2): 9.585
- sample/DMSO (0.00457247 uM M-833, START(N330K), 0 mM GlcN, biological replicate 3): 4.929
- sample/DMSO (0.00457247 uM M-833, START(N330K), 0 mM GlcN, biological replicate 4): -5.471
- sample/DMSO (0.00457247 uM M-833, START(N330K), 0.25 mM GlcN, biological replicate 1): 0.8993
- sample/DMSO (0.00457247 uM M-833, START(N330K), 0.25 mM GlcN, biological replicate 2): 9.092
- sample/DMSO (0.00457247 uM M-833, START(N330K), 0.25 mM GlcN, biological replicate 3): -0.2009
- sample/DMSO (0.00457247 uM M-833, START(N330K), 0.25 mM GlcN, biological replicate 4): -11.7886
- sample/DMSO (0.00457247 uM M-833, START(N330K), 2.5 mM GlcN, biological replicate 1): 14.0279
- sample/DMSO (0.00457247 uM M-833, START(N330K), 2.5 mM GlcN, biological replicate 2): 17.9639
- sample/DMSO (0.00457247 uM M-833, START(N330K), 2.5 mM GlcN, biological replicate 3): -5.165
- sample/DMSO (0.00457247 uM M-833, START(N330K), 2.5 mM GlcN, biological replicate 4): -8.571
- sample/DMSO (0.0137174 uM M-833, START(N330K), 0 mM GlcN, biological replicate 1): 7.141
- sample/DMSO (0.0137174 uM M-833, START(N330K), 0 mM GlcN, biological replicate 2): 7.124
- sample/DMSO (0.0137174 uM M-833, START(N330K), 0 mM GlcN, biological replicate 3): -3.262
- sample/DMSO (0.0137174 uM M-833, START(N330K), 0 mM GlcN, biological replicate 4): 6.3139
- sample/DMSO (0.0137174 uM M-833, START(N330K), 0.25 mM GlcN, biological replicate 1): 1.512
- sample/DMSO (0.0137174 uM M-833, START(N330K), 0.25 mM GlcN, biological replicate 2): 8.325
- sample/DMSO (0.0137174 uM M-833, START(N330K), 0.25 mM GlcN, biological replicate 3): 2.478
- sample/DMSO (0.0137174 uM M-833, START(N330K), 0.25 mM GlcN, biological replicate 4): 0
- sample/DMSO (0.0137174 uM M-833, START(N330K), 2.5 mM GlcN, biological replicate 1): 15.7451
- sample/DMSO (0.0137174 uM M-833, START(N330K), 2.5 mM GlcN, biological replicate 2): 11.3968
- sample/DMSO (0.0137174 uM M-833, START(N330K), 2.5 mM GlcN, biological replicate 3): -4.719
- sample/DMSO (0.0137174 uM M-833, START(N330K), 2.5 mM GlcN, biological replicate 4): -3.372
- sample/DMSO (0.0411523 uM M-833, START(N330K), 0 mM GlcN, biological replicate 1): 8.934
- sample/DMSO (0.0411523 uM M-833, START(N330K), 0 mM GlcN, biological replicate 2): 2.634
- sample/DMSO (0.0411523 uM M-833, START(N330K), 0 mM GlcN, biological replicate 3): 5.053
- sample/DMSO (0.0411523 uM M-833, START(N330K), 0 mM GlcN, biological replicate 4): -9.704
- sample/DMSO (0.0411523 uM M-833, START(N330K), 0.25 mM GlcN, biological replicate 1): 4.325
- sample/DMSO (0.0411523 uM M-833, START(N330K), 0.25 mM GlcN, biological replicate 2): -8.575
- sample/DMSO (0.0411523 uM M-833, START(N330K), 0.25 mM GlcN, biological replicate 3): -3.728
- sample/DMSO (0.0411523 uM M-833, START(N330K), 0.25 mM GlcN, biological replicate 4): -6.829
- sample/DMSO (0.0411523 uM M-833, START(N330K), 2.5 mM GlcN, biological replicate 1): 19.2666
- sample/DMSO (0.0411523 uM M-833, START(N330K), 2.5 mM GlcN, biological replicate 2): 13.1689
- sample/DMSO (0.0411523 uM M-833, START(N330K), 2.5 mM GlcN, biological replicate 3): 1.449
- sample/DMSO (0.0411523 uM M-833, START(N330K), 2.5 mM GlcN, biological replicate 4): -4.731
- sample/DMSO (0.123457 uM M-833, START(N330K), 0 mM GlcN, biological replicate 1): 11.901
- sample/DMSO (0.123457 uM M-833, START(N330K), 0 mM GlcN, biological replicate 2): 1.439
- sample/DMSO (0.123457 uM M-833, START(N330K), 0 mM GlcN, biological replicate 3): 5.443
- sample/DMSO (0.123457 uM M-833, START(N330K), 0 mM GlcN, biological replicate 4): 0.2691
- sample/DMSO (0.123457 uM M-833, START(N330K), 0.25 mM GlcN, biological replicate 1): 10.3138
- sample/DMSO (0.123457 uM M-833, START(N330K), 0.25 mM GlcN, biological replicate 2): 8.225
- sample/DMSO (0.123457 uM M-833, START(N330K), 0.25 mM GlcN, biological replicate 3): 5.9375
